The source made the active and inactive calls.
Tests used:
[1] = biological target: Sphingosine 1-phosphate receptor 2 (Homo sapiens, UniProt O95136); test: Dose Response Cell Based Assay for Agonists of the S1P2 Receptor of Purchased Analogues. [Related pubchem assays: 729, 843, 854, 736 ]; format: functional
Galanin receptor type 3 = Galanin receptor type 3 (Homo sapiens, UniProt O60755); test: Fluorescence-based cell-based primary high throughput dose response assay to identify antagonists of the Galanin Receptor 3 (GalR3).; format: functional
[2] = biological target: COUP transcription factor 2 (Homo sapiens, UniProt P24468); test: Luminescence-based cell-based high throughput dose response assay to identify inhibitors of COUP-TFII (NR2F2).; format: functional;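 further: HEK293 cells transiently cotransfected with COUP-TFII expression vector and reporter; luciferase reporter luminescence driven by COUP-TFII from the pX2-168 reporter plasmid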
[3] = biological target: T1, Heat shock factor protein 1 (Mus musculus, UniProt P38532); test: decrease of HSF1-responsive luciferase luminescence – cell-based, NIH3T3, dose retest, confirmation (AID 2382); format: functional;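 further: NIH3T3 fibroblasts with HSF1-driven luciferase reporter stressed by proteasome inhibitor MG132; luminescence from HSF1-driven luciferase expression after 8 hours of MG132 stress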
T1 sequence (P38532 whole entry): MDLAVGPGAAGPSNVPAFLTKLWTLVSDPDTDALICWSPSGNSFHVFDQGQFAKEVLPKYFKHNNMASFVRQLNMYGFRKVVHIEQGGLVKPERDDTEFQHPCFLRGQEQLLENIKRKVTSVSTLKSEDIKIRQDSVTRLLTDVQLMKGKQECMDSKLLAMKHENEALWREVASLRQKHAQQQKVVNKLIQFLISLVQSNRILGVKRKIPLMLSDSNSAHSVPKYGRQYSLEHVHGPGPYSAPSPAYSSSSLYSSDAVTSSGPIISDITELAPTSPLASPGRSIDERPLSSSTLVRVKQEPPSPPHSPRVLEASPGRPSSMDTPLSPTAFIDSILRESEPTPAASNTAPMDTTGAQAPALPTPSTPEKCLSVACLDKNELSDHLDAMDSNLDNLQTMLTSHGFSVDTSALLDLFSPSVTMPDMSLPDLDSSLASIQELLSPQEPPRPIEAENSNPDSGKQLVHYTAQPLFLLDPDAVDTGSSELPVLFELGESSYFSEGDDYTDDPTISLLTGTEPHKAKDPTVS

cells = format: functional, cell-based; details: HEK-CNG
Galanin receptor type 2 = Galanin receptor type 2 (Homo sapiens, UniProt O43603); test: Dose Response cell-based high-throughput screening assay to identify antagonists of galanin receptor 2 (GALR2). [Related pubchem assays: 828, 866 ]; format: functional
[4] = biological target: T2, E3 ubiquitin-protein ligase XIAP (Homo sapiens, UniProt P98170); test: small molecules displacing peptide from XIAP – biochemical, IAP family, fluorescence polarization (AID 1018); format: functional
14-3-3 protein gamma = 14-3-3 protein gamma (Homo sapiens, UniProt P61981); test: modulators of 14-3-3 gamma client binding – dose response (AID 711); format: functional
[5] = biological target: T2, E3 ubiquitin-protein ligase XIAP; test: Counter Screen using XIAP-Bir3 for Chemical Antagonists of Bir1/2 domains of IAP-family anti-apoptotic proteins. [Related pubchem assays (depositor defined):AID1018, AID1449, AID1514, AID1638, AID1749, AID1750, AID488957, AID488963]
[6] = M. tuberculosis H37Rv growth inhibitors, H37Rv strain (AID 1626); format: functional
HEK293 [7] = test: cells; format: functional, cell-based; details: Homo sapiens
Procathepsin L = Procathepsin L (Homo sapiens, UniProt P07711); test: CTSL1 protease inhibition – biochemical, QFRET, 1536-well, counter-screen for M1/M17 aminopeptidase inhibitor project, dose response (AID 2214)
[8] = biological target: T3, Calpain-2 catalytic subunit (Sus scrofa, UniProt P43367); test: m-calpain protease blockers, concentration series – biochemical, fluorogenic peptide substrate, dose response (AID 1420); format: functional
T3 sequence (P43367 whole entry): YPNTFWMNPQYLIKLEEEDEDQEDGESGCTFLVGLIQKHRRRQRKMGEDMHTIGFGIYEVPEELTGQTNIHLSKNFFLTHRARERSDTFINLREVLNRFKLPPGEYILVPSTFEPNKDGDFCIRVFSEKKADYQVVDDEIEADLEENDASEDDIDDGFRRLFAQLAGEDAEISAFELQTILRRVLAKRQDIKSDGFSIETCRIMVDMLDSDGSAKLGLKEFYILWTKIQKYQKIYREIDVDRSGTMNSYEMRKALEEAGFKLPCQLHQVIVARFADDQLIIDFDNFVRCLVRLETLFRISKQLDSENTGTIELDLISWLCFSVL

HEK293 [9] = test: cells; format: functional, cell-based; details: Homo sapiens; remark: listed apart in the source
HEK293 [10] = test: inhibition of NOD1-driven NF-kB reporter – cell-based, luminescence, uHTS, primary screen (AID 1578); format: functional; details: Homo sapiens
Aspartyl aminopeptidase = Aspartyl aminopeptidase (Plasmodium falciparum 3D7, UniProt Q8I2J3); test: Counterscreen for inhibitors of M1 and M17 aminopeptidases: QFRET-based biochemical high throughput dose response assay for inhibitors of the Plasmodium falciparum M18 Aspartyl Aminopeptidase (PFM18AAP). [Related PubChem assays: 1619 (Screening assay (M17LAP inhibitors).), 1445 (Screening assay (M1AAP inhibitors).)]
Aminopeptidase N = biological target: T4, Aminopeptidase N (Plasmodium falciparum FcB1/Columbia, UniProt O96935); test: malaria alanyl aminopeptidase activity blockers – biochemical, fluorogenic H-Leu-NHMec substrate, 1536-well (AID 1445); design: species or system Plasmodium falciparum 3D7, 3D7
T4 sequence (O96935 whole entry): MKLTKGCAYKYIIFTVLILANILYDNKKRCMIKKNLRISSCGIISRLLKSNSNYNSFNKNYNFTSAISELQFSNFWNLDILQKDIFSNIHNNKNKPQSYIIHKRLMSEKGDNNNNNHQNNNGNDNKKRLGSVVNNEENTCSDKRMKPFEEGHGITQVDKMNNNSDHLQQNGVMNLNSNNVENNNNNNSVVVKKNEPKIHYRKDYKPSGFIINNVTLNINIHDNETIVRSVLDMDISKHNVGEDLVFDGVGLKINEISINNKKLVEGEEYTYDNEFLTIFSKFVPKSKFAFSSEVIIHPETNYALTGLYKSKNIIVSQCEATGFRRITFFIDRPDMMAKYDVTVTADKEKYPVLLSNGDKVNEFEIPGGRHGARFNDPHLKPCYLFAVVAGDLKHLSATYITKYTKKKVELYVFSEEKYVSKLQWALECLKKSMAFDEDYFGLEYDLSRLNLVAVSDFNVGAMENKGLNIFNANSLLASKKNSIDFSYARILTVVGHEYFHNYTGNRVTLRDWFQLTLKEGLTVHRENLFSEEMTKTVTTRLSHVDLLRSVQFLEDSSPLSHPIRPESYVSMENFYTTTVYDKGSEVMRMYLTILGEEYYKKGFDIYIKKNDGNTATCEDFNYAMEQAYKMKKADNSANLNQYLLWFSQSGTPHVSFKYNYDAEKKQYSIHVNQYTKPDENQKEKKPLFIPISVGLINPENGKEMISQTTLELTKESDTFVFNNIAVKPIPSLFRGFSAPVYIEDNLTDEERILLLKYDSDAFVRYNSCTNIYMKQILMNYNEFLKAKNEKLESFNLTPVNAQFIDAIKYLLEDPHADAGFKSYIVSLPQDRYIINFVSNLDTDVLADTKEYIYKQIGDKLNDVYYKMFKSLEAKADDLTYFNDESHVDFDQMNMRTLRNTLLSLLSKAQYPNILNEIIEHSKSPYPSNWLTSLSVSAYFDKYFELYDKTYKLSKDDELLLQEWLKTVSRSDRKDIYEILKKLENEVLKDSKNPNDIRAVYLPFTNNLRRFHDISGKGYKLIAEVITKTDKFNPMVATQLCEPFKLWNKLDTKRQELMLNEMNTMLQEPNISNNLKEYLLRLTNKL

HEK293 [11] = test: NOD2 signaling inhibitors in MDP-stimulated cells, cell-based, uHTS, luminescence (AID 2001); format: functional; details: Homo sapiens
Bcl-2-related protein A1 [12] = biological target: T5, Bcl-2-related protein A1 (Mus musculus, UniProt Q07440); test: small-molecule antagonists of Bfl-1/BH3 interaction – biochemical, TR-FRET, mouse Bfl-1, confirmation (AID 621);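 further: TR-FRET binding of GST-Bfl-1 to FITC-labelled Bid peptide via terbium antibody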
T5 sequence (Q07440 whole entry): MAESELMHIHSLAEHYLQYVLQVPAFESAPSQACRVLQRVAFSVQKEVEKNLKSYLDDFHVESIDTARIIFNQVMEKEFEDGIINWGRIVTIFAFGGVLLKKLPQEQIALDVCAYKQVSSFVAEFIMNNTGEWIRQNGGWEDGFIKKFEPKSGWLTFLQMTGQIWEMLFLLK

[13] = biological target: Glyceraldehyde-3-phosphate dehydrogenase (Homo sapiens, UniProt P04406)
Bcl-2-related protein A1 [14] = biological target: T5, Bcl-2-related protein A1; test: Bfl-1 binding inhibitors, SAR follow-up, biochemical, fluorescence polarization (AID 1070)
[15] = biological target: Peroxisome proliferator-activated receptor gamma/Nuclear receptor coactivator 1 (Homo sapiens, UniProt P37231); format: functional;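 further: agonist potency as compounds enhance coactivator SRC-1 recruitment to PPARgamma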
[16] = Trypanosoma cruzi growth suppression in host cells – NIH3T3 host cells, beta-gal luminescence, confirmation (AID 2044); format: functional, cell-based;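 further: intracellular parasites grown in NIH/3T3 mouse fibroblasts as host cells; luminescent beta-galactosidase reporter signal from transgenic T. cruzi replicating inside host cells; inhibitors lower the luminescence signal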
[17] = biological target: Peroxisome proliferator-activated receptor gamma/Nuclear receptor coactivator 3 (Homo sapiens, UniProt P37231); format: functional;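 further: agonist potency for raising coactivator recruitment to the receptor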
[18] = biological target: Protein-tyrosine kinase 2-beta (Homo sapiens, UniProt Q14289);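 further: potency of inhibitors of PYK2 kinase phosphorylation of poly-GT substrate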
[19] = biological target: Delta-type opioid receptor (Homo sapiens, UniProt P41143); test: Counterscreen for agonists of heterodimerization of the mu 1 (OPRM1) and delta 1 (OPRD1) opioid receptors: Luminescence-based cell-based high throughput dose response assay to identify agonists of OPRD1 homodimerization. [Related pubchem assays (depositor defined):AID504326, AID504355, AID504692, AID504904, AID504905]; format: functional
[20] = biological target: 5-hydroxytryptamine receptor 5A (Homo sapiens, UniProt P47898); test: Counterscreen for agonists of OPRM1-OPRD1 heterodimerization: luminescence-based cell-based high throughput dose response assay to identify agonists of 5-hydroxytryptamine (serotonin) 5A receptor (HTR5A). [Related pubchem assays (depositor defined):AID504326, AID504355, AID504692, AID504904, AID504905]; format: functional
Prothrombin = Prothrombin (Bos taurus, UniProt P00735); test: thrombin protease inhibitors – biochemical, fluorescence polarization, uHTS hits, dose response (AID 602369); format: functional
[21] = biological target: 26S proteasome non-ATPase regulatory subunit 14 (Homo sapiens, UniProt O00487); test: inhibition of proteasome subunit RPN11 – biochemical, fluorescence polarization, uHTS hits, confirmation (AID 602368); format: functional
[22] = biological target: Peroxisome proliferator-activated receptor gamma/Nuclear receptor coactivator 2 (Homo sapiens, UniProt P37231); format: functional;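 further: agonist potency for raising coactivator recruitment to the receptor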
[23] = NIH3T3 cell viability loss – ATP luminescence, mouse fibroblasts, counter-screen, dose response (AID 2010); format: functional, cell-based;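 further: cells exposed to compound for about 90 hours before reading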
[24] = biological target: 72 kDa type IV collagenase (Homo sapiens, UniProt P08253); test: Dose Response validation of uHTS RPN11 inhibitor hits using a MMP-2 Fluorescence assay.; format: functional
[25] = Luminescence Cell-Based Dose Response HTS to Identify Inhibitors of 5'UTR Stem-Loop Driven Prion Protein mRNA Translation in H4 Neuroglioblastoma Cells. [Related pubchem assays: 1827 (Project Summary), 1813 (Primary HTS)]; format: functional
Mu-type opioid receptor = Mu-type opioid receptor (Homo sapiens, UniProt P35372); test: Counterscreen for agonists of heterodimerization of the mu 1 (OPRM1) and delta 1 (OPRD1) opioid receptors: Luminescence-based cell-based high throughput dose response assay to identify agonists of OPRM1 homodimerization.; format: functional;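 further: U2OS cells expressing OPRM1 and beta-arrestin as split beta-galactosidase partners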
[26] = A High Throughput Confirmatory Assay used to Identify Novel Compounds that Inhibit Mycobacterium Tuberculosis in the absence of Glycerol.; format: functional

T2 sequence (P98170 whole entry): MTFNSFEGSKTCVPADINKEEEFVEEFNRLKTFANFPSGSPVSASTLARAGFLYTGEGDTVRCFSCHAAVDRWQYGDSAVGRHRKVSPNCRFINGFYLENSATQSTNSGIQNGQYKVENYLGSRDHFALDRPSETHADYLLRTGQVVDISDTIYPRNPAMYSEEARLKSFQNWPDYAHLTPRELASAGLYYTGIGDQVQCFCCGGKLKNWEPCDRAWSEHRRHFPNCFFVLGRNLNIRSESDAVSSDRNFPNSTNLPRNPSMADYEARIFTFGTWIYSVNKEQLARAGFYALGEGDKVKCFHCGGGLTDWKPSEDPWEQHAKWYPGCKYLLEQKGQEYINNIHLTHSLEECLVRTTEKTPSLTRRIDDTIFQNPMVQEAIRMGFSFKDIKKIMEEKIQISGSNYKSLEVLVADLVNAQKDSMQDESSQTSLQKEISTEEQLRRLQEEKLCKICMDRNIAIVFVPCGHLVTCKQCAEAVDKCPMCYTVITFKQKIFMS
Sequence of 14-3-3 protein gamma (P61981 whole entry): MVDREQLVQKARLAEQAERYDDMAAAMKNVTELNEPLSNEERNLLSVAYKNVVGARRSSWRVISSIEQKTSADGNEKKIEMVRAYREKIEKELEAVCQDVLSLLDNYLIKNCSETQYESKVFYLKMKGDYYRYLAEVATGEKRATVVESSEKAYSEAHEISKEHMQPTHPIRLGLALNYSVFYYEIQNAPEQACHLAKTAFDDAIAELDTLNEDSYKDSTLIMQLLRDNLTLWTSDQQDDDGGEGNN
Sequence of Delta-type opioid receptor (P41143 whole entry): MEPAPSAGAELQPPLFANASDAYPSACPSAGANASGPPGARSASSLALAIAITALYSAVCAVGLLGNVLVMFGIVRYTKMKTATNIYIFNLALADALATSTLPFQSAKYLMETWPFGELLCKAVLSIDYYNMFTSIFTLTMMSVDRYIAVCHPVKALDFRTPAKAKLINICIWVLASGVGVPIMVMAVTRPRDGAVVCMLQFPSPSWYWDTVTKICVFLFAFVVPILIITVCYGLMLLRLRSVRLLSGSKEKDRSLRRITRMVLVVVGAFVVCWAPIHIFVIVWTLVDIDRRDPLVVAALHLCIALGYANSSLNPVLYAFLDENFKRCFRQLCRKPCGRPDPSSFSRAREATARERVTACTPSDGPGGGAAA
Sequence of Galanin receptor type 3 (O60755 whole entry): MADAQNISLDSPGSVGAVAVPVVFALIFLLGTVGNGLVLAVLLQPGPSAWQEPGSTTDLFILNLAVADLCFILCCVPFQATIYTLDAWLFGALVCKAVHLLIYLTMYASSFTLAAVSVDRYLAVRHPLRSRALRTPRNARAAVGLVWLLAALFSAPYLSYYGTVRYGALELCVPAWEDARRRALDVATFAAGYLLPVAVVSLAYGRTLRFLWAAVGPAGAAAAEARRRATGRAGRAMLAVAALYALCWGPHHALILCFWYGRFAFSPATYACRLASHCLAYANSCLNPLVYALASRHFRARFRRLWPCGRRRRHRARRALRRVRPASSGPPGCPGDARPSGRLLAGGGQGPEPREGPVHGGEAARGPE
Sequence of COUP transcription factor 2 (P24468 whole entry): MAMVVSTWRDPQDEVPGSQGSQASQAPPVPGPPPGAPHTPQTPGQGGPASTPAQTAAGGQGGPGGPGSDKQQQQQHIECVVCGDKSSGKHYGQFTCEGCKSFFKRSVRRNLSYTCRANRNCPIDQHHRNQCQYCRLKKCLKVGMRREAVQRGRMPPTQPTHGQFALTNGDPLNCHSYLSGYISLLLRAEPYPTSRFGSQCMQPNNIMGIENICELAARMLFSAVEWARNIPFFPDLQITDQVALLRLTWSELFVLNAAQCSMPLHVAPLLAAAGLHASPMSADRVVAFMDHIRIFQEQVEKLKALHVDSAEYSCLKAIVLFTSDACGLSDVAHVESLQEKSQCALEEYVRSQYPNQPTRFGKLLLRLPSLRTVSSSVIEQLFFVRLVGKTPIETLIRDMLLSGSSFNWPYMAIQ
Sequence of 26S proteasome non-ATPase regulatory subunit 14 (O00487 whole entry): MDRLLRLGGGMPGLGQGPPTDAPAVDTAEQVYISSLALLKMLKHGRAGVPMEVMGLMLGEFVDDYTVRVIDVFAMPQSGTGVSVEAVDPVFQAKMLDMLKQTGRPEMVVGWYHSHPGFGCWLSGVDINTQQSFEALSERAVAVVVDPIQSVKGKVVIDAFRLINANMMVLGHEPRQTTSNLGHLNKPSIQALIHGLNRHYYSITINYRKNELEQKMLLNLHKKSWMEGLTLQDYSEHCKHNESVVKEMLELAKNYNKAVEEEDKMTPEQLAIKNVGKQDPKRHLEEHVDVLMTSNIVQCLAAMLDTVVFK
Sequence of Procathepsin L (P07711 whole entry): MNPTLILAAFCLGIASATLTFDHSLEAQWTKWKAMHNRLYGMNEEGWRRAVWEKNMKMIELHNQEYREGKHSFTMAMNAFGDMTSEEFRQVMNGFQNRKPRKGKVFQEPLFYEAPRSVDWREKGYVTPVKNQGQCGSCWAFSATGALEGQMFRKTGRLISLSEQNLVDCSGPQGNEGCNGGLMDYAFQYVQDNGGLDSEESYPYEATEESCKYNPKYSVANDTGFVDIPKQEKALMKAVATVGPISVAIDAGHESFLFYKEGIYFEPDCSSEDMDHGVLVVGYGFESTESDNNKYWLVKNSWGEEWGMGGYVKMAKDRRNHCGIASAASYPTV
Sequence of 5-hydroxytryptamine receptor 5A (P47898 whole entry): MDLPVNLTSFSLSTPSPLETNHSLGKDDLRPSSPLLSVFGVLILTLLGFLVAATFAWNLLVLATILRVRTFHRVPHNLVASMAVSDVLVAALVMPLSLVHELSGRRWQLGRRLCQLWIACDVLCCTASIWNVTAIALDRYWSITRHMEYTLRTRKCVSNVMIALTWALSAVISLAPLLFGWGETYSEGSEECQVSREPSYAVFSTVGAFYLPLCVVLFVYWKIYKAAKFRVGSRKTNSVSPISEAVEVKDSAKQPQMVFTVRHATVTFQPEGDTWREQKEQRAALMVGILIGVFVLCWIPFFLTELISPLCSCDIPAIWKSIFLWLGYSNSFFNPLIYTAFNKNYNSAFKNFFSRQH
Sequence of Peroxisome proliferator-activated receptor gamma/Nuclear receptor coactivator 1 (P37231 whole entry): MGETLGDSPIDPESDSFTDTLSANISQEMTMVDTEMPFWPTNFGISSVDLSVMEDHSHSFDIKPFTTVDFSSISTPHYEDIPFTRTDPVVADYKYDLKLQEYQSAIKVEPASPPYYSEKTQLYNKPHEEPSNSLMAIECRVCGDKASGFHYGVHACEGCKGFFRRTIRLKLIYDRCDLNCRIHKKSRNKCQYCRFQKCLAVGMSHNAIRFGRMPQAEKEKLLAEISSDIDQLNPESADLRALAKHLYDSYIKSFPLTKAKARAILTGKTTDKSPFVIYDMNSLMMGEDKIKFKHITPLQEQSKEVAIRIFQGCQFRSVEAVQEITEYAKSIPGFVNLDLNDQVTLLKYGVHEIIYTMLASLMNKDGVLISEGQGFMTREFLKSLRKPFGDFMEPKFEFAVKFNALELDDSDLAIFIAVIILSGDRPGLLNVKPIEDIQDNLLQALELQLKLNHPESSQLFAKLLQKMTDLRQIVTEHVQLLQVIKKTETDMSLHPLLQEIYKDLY
Sequence of Peroxisome proliferator-activated receptor gamma/Nuclear receptor coactivator 1 (Q15788 whole entry, further chain): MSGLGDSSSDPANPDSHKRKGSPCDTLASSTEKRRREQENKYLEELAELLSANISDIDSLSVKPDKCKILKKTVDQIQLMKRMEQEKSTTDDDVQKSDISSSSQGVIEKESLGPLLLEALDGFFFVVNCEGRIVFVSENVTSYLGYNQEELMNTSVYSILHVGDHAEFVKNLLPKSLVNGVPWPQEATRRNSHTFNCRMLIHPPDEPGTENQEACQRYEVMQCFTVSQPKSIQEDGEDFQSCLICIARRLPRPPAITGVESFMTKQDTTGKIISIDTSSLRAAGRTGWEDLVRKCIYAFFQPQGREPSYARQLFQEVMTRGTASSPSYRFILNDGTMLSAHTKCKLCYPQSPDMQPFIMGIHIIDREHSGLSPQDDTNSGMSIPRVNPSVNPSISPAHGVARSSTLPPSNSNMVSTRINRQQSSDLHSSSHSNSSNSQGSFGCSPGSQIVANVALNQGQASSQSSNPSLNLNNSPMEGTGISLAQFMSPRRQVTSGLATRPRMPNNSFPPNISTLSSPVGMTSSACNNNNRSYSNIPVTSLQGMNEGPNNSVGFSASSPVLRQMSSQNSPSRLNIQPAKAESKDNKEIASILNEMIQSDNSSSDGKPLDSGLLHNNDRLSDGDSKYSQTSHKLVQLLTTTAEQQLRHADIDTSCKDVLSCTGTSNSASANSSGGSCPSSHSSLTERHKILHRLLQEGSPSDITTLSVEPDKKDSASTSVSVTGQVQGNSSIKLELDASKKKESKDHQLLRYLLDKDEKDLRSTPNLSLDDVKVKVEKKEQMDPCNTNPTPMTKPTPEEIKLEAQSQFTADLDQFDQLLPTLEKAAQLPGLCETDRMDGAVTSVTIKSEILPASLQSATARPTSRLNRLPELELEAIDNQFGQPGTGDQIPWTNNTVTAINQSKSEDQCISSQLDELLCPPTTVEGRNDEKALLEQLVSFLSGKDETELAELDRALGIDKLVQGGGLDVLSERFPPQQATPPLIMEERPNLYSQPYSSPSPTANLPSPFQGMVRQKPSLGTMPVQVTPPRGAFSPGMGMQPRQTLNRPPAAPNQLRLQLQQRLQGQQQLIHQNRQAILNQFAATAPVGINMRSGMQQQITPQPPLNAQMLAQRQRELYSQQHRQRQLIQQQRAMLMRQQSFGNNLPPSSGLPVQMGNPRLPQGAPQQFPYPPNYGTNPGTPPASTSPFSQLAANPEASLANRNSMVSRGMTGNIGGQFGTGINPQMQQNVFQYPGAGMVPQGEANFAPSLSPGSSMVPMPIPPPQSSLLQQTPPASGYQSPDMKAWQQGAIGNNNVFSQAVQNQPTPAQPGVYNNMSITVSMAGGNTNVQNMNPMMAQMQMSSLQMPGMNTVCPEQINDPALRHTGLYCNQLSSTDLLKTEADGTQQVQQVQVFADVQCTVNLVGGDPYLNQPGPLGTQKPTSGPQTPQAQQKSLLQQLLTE

Cc1nn(CC(=O)c2cc(C)n(Cc3ccccc3)c2C)c(C)c1[N+](=O)[O-]
EC50 [1]: > 30 µM (not active)

Cc1sc2ncnc(NCCc3ccc(S(N)(=O)=O)cc3)c2c1C
IC50 (Galanin receptor type 3): 2.95 µM (active)
IC50 [2]: 4.23 µM (active)
EC50 [3]: > 195 µM (not active)
EC50 (cells): > 29.9 µM (inactive)
IC50 (Galanin receptor type 2): > 42 µM (not active)

CCn1c(CSc2nnc(-c3cccnc3)n2-c2ccccc2C)nc2cc(C(=O)O)ccc21
IC50 [4]: > 0.781 µM (not active)
IC50 (14-3-3 protein gamma): < 0.781 µM (active)
IC50 [5]: > 1.56 µM (inactive)

Fc1ccc(-c2nnc(CSc3nnc(-c4cccs4)o3)o2)cc1
IC50 [6]: > 100 µM (active)

O=C(O)C(Cc1ccccc1)N1C(=O)/C(=C/c2cccc3ccccc23)SC1=S (stereo not given)
IC50 (HEK293 [7]): > 20 µM (inactive)
IC50 (Procathepsin L): 28.4 µM (not active)
IC50 [8]: > 50 µM (not active)
IC50 (HEK293 [9]): > 20 µM (inactive)
EC50 (HEK293 [10]): 16.5 µM (active)
IC50 (Aspartyl aminopeptidase): > 73.5 µM (not active)
IC50 (Aminopeptidase N): 14.9 µM (active)
IC50 (HEK293 [11]): 18.5 µM (inactive)

O=C1C(Cl)=C(N2CCN(CCOCCO)CC2)C(=O)N1c1ccnc(Cl)c1
IC50 (Bcl-2-related protein A1 [12]): 20.5 µM (active)
IC50 [13]: > 100 µM (not active)
IC50 (Bcl-2-related protein A1 [14]): 33.2 µM (active)

O=C(COc1ccc(/C=N/NC(=O)c2cc3ccccc3o2)cc1Br)Nc1ccccc1
EC50 [15]: > 79.4 µM (not active)
EC50 [16]: 1.97 µM (active)
EC50 [17]: > 79.4 µM (not active)
IC50 [18]: > 2.57 µM (not active)
EC50 [19]: > 92.5 µM (inactive)
EC50 [20]: > 92.5 µM (inactive)
IC50 (Prothrombin): 76.3 µM (active)
IC50 [21]: 12.4 µM (active)
EC50 [22]: > 79.4 µM (not active)
EC50 [23]: > 60 µM (not active)
IC50 [24]: > 100 µM (inactive)
EC50 [25]: 9.11 µM (inconclusive)
EC50 (Mu-type opioid receptor): > 92.5 µM (inactive)

CC(Oc1cc2oc(=O)c3c(c2cc1Cl)CCCC3)C(=O)NCc1ccccn1 (stereo not given)
IC50 [26]: > 100 µM (active)
